In publication PMC10913484, “Hydroxyhexylitaconic acids as potent IMP-type metallo-β-lactamase inhibitors for controlling carbapenem resistance in Enterobacterales” (Microbiology Spectrum, 2024):
Converted amounts (≈) assume the structure as drawn. Like-named read-outs stand apart in the source and are kept apart here. Values belong to the compound of their own block, whether it stands above or below them.

Tests used:
E. coli DH5α pBC-VIM-2 = assay: Susceptibility test (microdilution), transformant; assay type: cell-based
Procedure: (§1) Susceptibility testing, based on the microdilution method, was performed according to the guidelines of the Clinical and Laboratory Standards Institute ([36]).

E. coli NUBL-22 (IMP-6) = assay: Susceptibility test, clinical isolate; assay type: cell-based; details: Escherichia coli
Procedure: as §1

[1] = test system: K. pneumoniae NUBL-23 (IMP-6); assay: Susceptibility test, clinical isolate; assay type: cell-based; details: Klebsiella pneumoniae
Procedure: as §1

E. coli 465 (IMP-1) = assay: Susceptibility test, clinical isolate; assay type: cell-based; details: Escherichia coli
Procedure: as §1

E. coli 426 (IMP-1) = assay: Susceptibility test, clinical isolate; assay type: cell-based; details: Escherichia coli
Procedure: as §1

[2] = test system: K. pneumoniae AR0076 (VIM-1); assay: Susceptibility test, clinical isolate; assay type: cell-based; details: Klebsiella pneumoniae
Procedure: as §1

[3] = test system: K. oxytoca NUBL-827 (IMP-1); assay: Susceptibility test, clinical isolate; assay type: cell-based; details: Klebsiella oxytoca
Procedure: as §1

[4] = test system: E. cloacae NUBL-5 (IMP-1); assay: Susceptibility test, clinical isolate; assay type: cell-based; details: Enterobacter cloacae
Procedure: as §1

[5] = test system: P. penneri E11-M475 (IMP-1); assay: Susceptibility test, clinical isolate; assay type: cell-based; details: Proteus penneri
Procedure: as §1

[6] = test system: K. pneumoniae AR0034 (IMP-4); assay: Susceptibility test, clinical isolate; assay type: cell-based; details: Klebsiella pneumoniae, K. pneumoniae AR0034 (IMP-4)
Procedure: as §1

[7] = test system: K. pneumoniae NUBL-8 (IMP-1); assay: Susceptibility test, clinical isolate; assay type: cell-based; details: Klebsiella pneumoniae
Procedure: as §1

[8] = test system: K. pneumoniae MS5674 (NDM-1/VIM-1); assay: Susceptibility test, clinical isolate; assay type: cell-based; details: Klebsiella pneumoniae
Procedure: as §1

E. coli NUBL-24 (IMP-1) = assay: Susceptibility test, clinical isolate; assay type: cell-based; details: E. coli NUBL-24 (IMP-1); for MIC: Escherichia coli
Procedure: as §1

IMP-1 [9] = biological target: T1, IMP-1 (Serratia marcescens, UniProt P52699); assay type: biochemical; details: IMP-1 with agent (5 mM stock), dialysis
T1 construct: made in house
Procedure: A total of 5 µL of IMP-1 (100 µM) and 2 µL of EDTA (5 mM) or HHIA (5 mM) were mixed in 100 µL of 20 mM HEPES buffer (pH 7.5) pretreated with Chelex 100 resin (Bio-Rad) and incubated on ice for 30 min. The samples were dialyzed against ultrapure water at 4°C for 6 h using Slide-A-Lyzer Dialysis Cassettes (cutoff, 3.5 K) (Thermo Fisher Scientific) and treated with proteinase K (FUJIFILM Wako Pure Chemical Corporation) at 37°C for 1 h. The zinc concentration in the samples was determined using a Zinc Assay Kit (MG Metallogenics).

IMP-1 [10] = biological target: T1, IMP-1; assay type: binding; details: DSF; control protein 52.5°C
Procedure: The DSF assay was performed using the Protein Thermal Shift Dye Kit (Thermo Fisher Scientific) and StepOnePlus Real-Time PCR Systems (Applied Biosystems) as follows: 2 µL of IMP-1 enzyme (100 µM), 1 µL of EDTA or HHIA solution (5 mM), 2.5 µL of diluted Protein Thermal Shift Dye (32×), 5 µL of Protein Thermal Shift buffer, and 9.5 µL of water were mixed in a test tube and incubated for 15 min at 4°C. Four replicates of each sample were performed. The fluorescence was monitored at 0.7°C increments from 4°C to 99°C. The relative fluorescence units were fitted with the Boltzmann equation using the TSA-CRAFT software to determine the melting point (Tm) ([47]).

E. coli DH5α pBC-NDM-1 = assay: Susceptibility test (microdilution), transformant; assay type: cell-based; details: E. coli DH5α pBC-NDM-1
Procedure: as §1

E. coli DH5α pBC-IMP-1 = assay: Susceptibility test (microdilution), transformant; assay type: cell-based
Procedure: as §1

E. coli DH5α pCL-SMB-1 = assay: Susceptibility test (microdilution), transformant; assay type: cell-based; details: E. coli DH5α pCL-SMB-1
Procedure: as §1

IMP-1 [11] = biological target: T1, IMP-1; assay: In vitro inhibition assay (IPM hydrolysis); assay type: biochemical; details: read-out: IC50 for IMP-1
Procedure: MBLs were incubated with HHIAs in 20 mM HEPES buffer (pH 7.5) containing 200 mM NaCl and 50 µg/mL BSA at 30°C for 5 min. IPM was added at a concentration of 100 µM, and the rate of IPM hydrolysis was monitored at 297 nm. The initial velocity (v0) rates were plotted against HHIA’s logarithmic concentrations, and the data were fitted to a four-parameter variable slope to obtain the half-maximal inhibitor concentration (IC50) values using GraphPad Prism 9 software (GraphPad Software). The inhibition constant (Ki) was determined as follows: v0 was measured after varying the concentrations of IPM and HHIAs, and inverse v0 (1/v0) was plotted against the inverse IPM concentration [1/(IPM)]. Lineweaver–Burk plots were created to obtain Ki values under the competitive inhibition model using the SigmaPlot 14 suite (Hulinks).

[12] = test system: IMP-1-producing E. coli NUBL-24; assay: Time-killing assay; assay type: cell-based; details: MPM 1 µg/mL alone
Procedure: The initial density of IMP-1-producing E. coli NUBL-24 (MPM MIC, 8 µg/mL) was adjusted to approximately 5 × 10^6 colony-forming units (cfu)/mL. Either MPM (1 µg/mL) or 9-HHIA/10-HHIA (50 µg/mL) alone or a combination of the two was added to the bacterial solution, and then incubation was performed at 37°C. LB broth containing bacteria alone was used as a control. At 0, 2, 4, 8, and 12 h after adding the agents, an aliquot of the bacterial culture was removed, diluted, and spotted on LB agar plates to count the viable bacterial cells. The detection limit was set at 333 cfu/mL.

[13] = IPM alone (Control), read-out: IPM MIC
[14] = MPM alone (Control), read-out: MPM MIC

T1 sequence (P52699 19-246, looked up, species assumed): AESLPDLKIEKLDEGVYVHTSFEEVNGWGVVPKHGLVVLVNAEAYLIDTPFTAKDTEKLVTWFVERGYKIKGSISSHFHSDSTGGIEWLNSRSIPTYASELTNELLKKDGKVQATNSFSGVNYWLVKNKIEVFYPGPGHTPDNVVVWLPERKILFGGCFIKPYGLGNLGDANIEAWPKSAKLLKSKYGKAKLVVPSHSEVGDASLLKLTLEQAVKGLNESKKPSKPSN

Compound: CC(C)(O/N=C(\C(=O)N[C@@H]1C(=O)N2C(C(=O)[O-])=C(C[n+]3ccccc3)CS[C@H]12)c1csc(N)n1)C(=O)O [CAZ, ceftazidime]
- MIC (E. coli DH5α pBC-VIM-2; Escherichia coli, read-out: CAZ MIC, CAZ alone (Control)): 4 to 8 µg/mL (≈ 7.32 to 14.6 µM)

- MIC (E. coli NUBL-22 (IMP-6); [13]): 2 µg/mL (≈ 6.68 µM)
- MIC [1, 13]: 1 µg/mL (≈ 3.34 µM)
- MIC (E. coli 465 (IMP-1); [13]): 32 µg/mL (≈ 107 µM)
- MIC (E. coli 426 (IMP-1); [13]): 8 µg/mL (≈ 26.7 µM)
- MIC [2, 13]: 32 µg/mL (≈ 107 µM)
- MIC [3, 13]: 16 µg/mL (≈ 53.4 µM)
- MIC [4, 13]: 8 µg/mL (≈ 26.7 µM)
- MIC [5, 13]: > 64 µg/mL
- MIC [6, 13]: 4 µg/mL (≈ 13.4 µM)
- MIC [7, 13]: 4 µg/mL (≈ 13.4 µM)
- MIC [8, 13]: 32 µg/mL (≈ 107 µM)
- MIC (E. coli NUBL-24 (IMP-1); [13]): 8 µg/mL (≈ 26.7 µM)
Compound: C[C@@H](O)[C@H]1C(=O)N2C(C(=O)O)=C(SCCN=CN)C[C@H]12 [IPM, imipenem, reference compound]

- Zinc ions in IMP-1 after treatment (IMP-1 [9]): completely lost
- Melting temperature (Tm) of treated IMP-1 (IMP-1 [10]): 43.4 °C
Compound: O=C(O)CN(CCN(CC(=O)O)CC(=O)O)CC(=O)O [EDTA, reference compound]

Compound: C=C(CC(=O)O)C(=O)O [Itaconic acid, itaconic acid]
- MPM MIC (E. coli DH5α pBC-NDM-1; +agent 6.25 μg/mL): >64 µg/mL
- MPM MIC (E. coli DH5α pBC-NDM-1; +agent 25 μg/mL): >64 µg/mL
- MPM MIC (E. coli DH5α pBC-NDM-1; +agent 100 μg/mL): >64 µg/mL
- MPM MIC (E. coli DH5α pBC-IMP-1; +agent 6.25 μg/mL): 1 µg/mL
- MPM MIC (E. coli DH5α pBC-IMP-1; +agent 25 μg/mL): 1 µg/mL
- MPM MIC (E. coli DH5α pBC-IMP-1; +agent 100 μg/mL): 1 µg/mL
- CAZ MIC (E. coli DH5α pBC-VIM-2; +agent 6.25 μg/mL): 8 µg/mL
- CAZ MIC (E. coli DH5α pBC-VIM-2; +agent 25 μg/mL): 8 µg/mL
- CAZ MIC (E. coli DH5α pBC-VIM-2; +agent 100 μg/mL): 8 µg/mL
- MPM MIC (E. coli DH5α pCL-SMB-1; +agent 6.25 μg/mL): 32 µg/mL
- MPM MIC (E. coli DH5α pCL-SMB-1; +agent 25 μg/mL): 32 µg/mL
- MPM MIC (E. coli DH5α pCL-SMB-1; +agent 100 μg/mL): 32 µg/mL
- IC50 (IMP-1 [11]): > 1000 µM

Compound: C[C@@H](O)[C@H]1C(=O)N2C(C(=O)O)=C(S[C@@H]3CN[C@H](C(=O)N(C)C)C3)[C@H](C)[C@H]12 [MPM, meropenem, reference compound]
- MIC (E. coli DH5α pBC-IMP-1; Escherichia coli, read-out: MPM MIC, MPM alone (Control)): 1 µg/mL (≈ 2.61 µM)
- MPM MIC (E. coli DH5α pBC-IMP-1; MPM alone (Control)): 1 µg/mL
- Time-kill: MPM alone [12]: regrew close to the control level at 12 h
- MIC (E. coli NUBL-22 (IMP-6); [14]): 32 µg/mL (≈ 83.4 µM)
- MIC [1, 14]: 64 µg/mL (≈ 167 µM)
- MIC (E. coli 465 (IMP-1); [14]): 32 µg/mL (≈ 83.4 µM)
- MIC (E. coli 426 (IMP-1); [14]): 16 µg/mL (≈ 41.7 µM)
- MIC [2, 14]: 32 µg/mL (≈ 83.4 µM)
- MIC [3, 14]: 32 µg/mL (≈ 83.4 µM)
- MIC [4, 14]: 16 µg/mL (≈ 41.7 µM)
- MIC [5, 14]: > 64 µg/mL
- MIC [6, 14]: 8 µg/mL (≈ 20.9 µM)
- MIC [7, 14]: 16 µg/mL (≈ 41.7 µM)
- MIC [8, 14]: > 64 µg/mL
- MIC (E. coli NUBL-24 (IMP-1); [14]): 8 µg/mL (≈ 20.9 µM)
- MPM MIC (E. coli NUBL-24 (IMP-1); MPM alone (Control)): 8 µg/mL
